According to ChEMBL document CHEMBL1137813, “An extract of Tagetes lucida and its phenolic constituents as antioxidants” (J Nat Prod, 2002):

tested on: Radical scavenging activity; assay: Antioxidant activity assessed as DPPH radical scavenging activity after 20 mins by UV-visible spectrophotometry; assay type: functional

EC50 | SMILES
3 µg | O=C(O)/C=C/c1ccc(O)c(O)c1 [CAFFEIC ACID]
4.6 µg | O=c1c(O)c(-c2ccc(O)c(O)c2)oc2cc(O[C@@H]3O[C@H](CO)[C@@H](O)[C@H](O)[C@H]3O)c(O)c(O)c12
10.1 µg | Cc1c(C)c2c(c(C)c1O)CC[C@@](C)(CCC[C@H](C)CCC[C@H](C)CCCC(C)C)O2 [ALPHA-TOCOPHEROL]
6.9 µg | O=c1c(O)c(-c2ccc(O)cc2)oc2cc(O[C@@H]3O[C@H](CO)[C@@H](O)[C@H](O)[C@H]3O)c(O)c(O)c12
4.4 µg | O=c1c(O)c(-c2ccc(O)cc2)oc2cc(O)cc(O)c12 [KAEMPFEROL]
4.8 µg | C[C@@H]1O[C@@H](OC[C@H]2O[C@@H](Oc3c(-c4ccc(O)c(O)c4)oc4cc(O)cc(O)c4c3=O)[C@H](O)[C@@H](O)[C@@H]2O)[C@H](O)[C@H](O)[C@H]1O [RUTIN]

SMILES | EC50
O=c1c(O)c(-c2ccc(O)c(O)c2)oc2cc(O)cc(O)c12 [QUERCETIN] | 2.3 µg
O=C(O)c1cc(O)c(O)c(O)c1 [GALLIC ACID] | 1.2 µg
